# Columns and labels:
# [1] = tested on: Pseudomonas syringae pv. phaseolicola HB-9 biofilm; experiment: PspHB-9 biofilm susceptibility to Oxysilver and copper sulfate
# [2] = tested on: Pseudomonas syringae pv. phaseolicola HB-9 planktonic; experiment: PspHB-9 planktonic susceptibility to Oxysilver and copper sulfate
smiles,measurement,setting,value
O=S(=O)([O-])[O-].[Cu+2] [Copper sulfate],"Bacteria/biofilm growth PspHB-9 Biofilm, cell counts",[1]; 1250 ppm,5.15 log10
same,"Bacteria/biofilm growth PspHB-9 Biofilm, cell counts",[1]; 2900 ppm,0 log10
same,"Bacteria/biofilm growth PspHB-9 Biofilm, cell counts",[1]; 4600 ppm,0 log10
same,concentration needed to be effective,[1]; planktonic and biofilm PspHB-9,at least 11460 ppm
same,"Bacteria growth PspHB-9 Planktonic, cell counts",[2]; 1250 ppm,2.95 log10
same,"Bacteria growth PspHB-9 Planktonic, cell counts",[2]; 2900 ppm,0 log10
same,"Bacteria growth PspHB-9 Planktonic, cell counts",[2]; 4600 ppm,0 log10

# Source: patent publication US20110250290A1, “DISINFECTANT COMPOSITIONS” (priority 2006, published 2011)
